Where “and” joins values, the source holds several entries; their conditions need not be identical. Equal entries are not always repeated.
Assays:
[1] = tested on: Lactobacillus rhamnosus ATCC 7469; experiment: Microbiological riboflavin determination (growth turbidity, riboflavin assay medium); assay type: cell-based; details: for Average value (measurement at 630 nm): number 3; for Measurement at 630 nm: single well
Source text: The preparation of the microtitration plate and the determination of riboflavin was effected as in Example 1, except only that Lactobacillus rhamnosus ATCC 7469 was employed as test organism. As assay medium there was employed Difco™ riboflavin assay medium, containing cas amino acids 10.0 g/L, dextrose 20.0 g/L, sodium acetate 15.0 g/L, dipotassium hydrogen phosphate 1.0 g/L, potassium dihydrogen phosphate 1.0 g/L, L-asparagine 0.6 g/L, L-cystine 0.2 g/L, DL-tryptophane 0.2 g/L, magnesium sulfate 0.4 g/L, adenine sulfate 20.0 mg/L, guanine hydrochloride 20.0 mg/L, uracil 20.0 mg/L, xanthin 20 mg/L, iron sulfate 20.0 mg/L, manganese sulfate 20.0 mg/L, sodium chloride 20.0 mg/L, pyridoxine hydrochloride 4.0 mg/L, pyridoxal hydrochloride 4.0 mg/L, p-aminobenzoic acid 2.0 mg/L, calcium pantothenate 800 μg/L, folic acid 800 μg/L, nicotinic acid 800 μg/L, thiamine hydrochloride 400 μg/L, biotin 1.0 μg/L. The storage medium additionally contained 200 mM trehalose.

[2] = tested on: Saccharomyces cerevisae ATCC 9080; experiment: Microbiological B6 pyridoxine determination (growth turbidity, pyridoxine-Y-medium); assay type: cell-based; details: for Average value (measurement at 630 nm): number 3; for Measurement at 630 nm: single well
Experimental: The preparation of the microtitration plate and the determination of B6-pyridoxine was effected as in Example 1, except only that as test organism Saccharomyces cerevisae ATCC 9080 was employed. As assay medium there was employed Difco™ pyridoxine-Y-medium, containing dextrose 40.0 g/L, L-asparagine 4.0 g/L, ammonium sulfate 4.0 g/L potassium dihydrogen phosphate 3.0 g/L, magnesium sulfate 1.0 g/L, calcium chloride 0.49 g/L, DL-methionine 40.0 mg/L, DL-tryptophane 40.0 mg/L, DL-isoleucin 40.0 mg/L, DL-valin 40.0 mg/L, L-histidine hydrochloride 20.0 mg/L, riboflavin 20.0 mg/L, biotin 8.0 mg/L, inositol 5.0 mg/L, iron sulfate 500 μg/L, thiamine hydrochloride 400.0 μg/L, calcium pantothenate 400.0 μg/L, nicotinic acid 400.0 μg/L, boric acid 200.0 μg/L, potassium iodide 200.0 μg/L, ammonium molybdate 40.0 μg/L, manganese sulfate 80.0 μg/L, copper sulfate 90.0 μg/L, zinc sulfate 80.0 μg/L. The storage medium further contained 200 mM trehalose.

[3] = tested on: Lactobacillus plantarum ATCC 8014; experiment: Microbiological biotin determination (growth turbidity, biotin assay medium); assay type: cell-based; details: for Average value (measurement at 630 nm): number 3; for Measurement at 630 nm: single well
Experimental: The preparation of the microtitration plate and determination of biotin was effected as in Example 1 with Lactobacillus plantarum ATCC 8014. There served as assay medium Difco™ biotin assay medium, containing casamino acids 12.0 g/L, dextrose 40.0 g/L, sodium acetate 20.0 g/L, L-cystein 0.2 g/L, DL-tryptophane 0.2 g/L, adenine sulfate 20.0 mg/L, guanine hydrochloride 20.0 mg/L, uracil 20.0 mg/L, thiamine hydrochloride 2.0 mg/L, riboflavin 2.0 mg/L, niacin 2.0 mg/L, calcium pantothenate 2.0 mg/L, pyridoxine hydrochloride 4.0 mg/L, p-aminobenzoic acid 0.2 mg/L, magnesium sulfate (water-free) 0.4 mg/L, sodium chloride 20.0 mg/L, iron sulfate 20.0 mg/L, manganese sulfate 20.0 mg/L, potassium dihydrogen phosphate 1.0 g/L, dipotassium hydrogen phosphate 1.0 g/L. The storage medium further contain 200 mM trehalose. The determined standard curve is show in FIG. 4.

[4] = tested on: Lactobacillus rhamnosus ATCC 7469; experiment: Microbiological folic acid determination (growth turbidity, folic acid-casein medium); assay type: cell-based; details: for Average value (measurement at 630 nm): number 3; for Measurement at 630 nm: single well
Source text: The preparation of the microtitration plate and the determination of folic acid (pteroylglutaminic acid and other folic acid conjugates) was effected as in Example 1, except only that Lactobacillus rhamnosus ATCC 7469 was employed as test organism. There was employed as assay medium Difco™ folic acid-casein medium, containing activated carbon treated pancreas digested casein 10.0 g/L, dextrose 40.0 g/L, sodium acetate 40.0 g/L, potassium dihydrogen phosphate 1.0 g/L, dipotassium hydrogen phosphate 1.0 g/L, DL-tryptophane 0.2 g/L, L-asparagine 0.6 g/L, L-cystein hydrochloride 0.5 g/L, adenine sulfate 10.0 mg/L, guanine hydrochloride 10.0 mg/L, uracil 10.0 mg/L, xanthin 20.0 mg/L, Polysorbate-80 0.1 g/L, glutathion (reduced) 5.0 mg/L, magnesium sulfate 0.2 g/L, sodium chloride 20.0 mg/L, iron sulfate 20.0 mg/L, manganese sulfate 15.0 mg/L, riboflavin 1.0 mg/L, p-aminobenzoic acid 2.0 mg/L, pyridoxine hydrochloride 4.0 mg/L, thiamine hydrochloride 400.0 μg/L, calcium pantothenate 800.0 μg/L, nicotinic acid 800.0 μg/L, biotin 20.0 μg/L, 0.05% ascorbic acid. The storage medium contained 200 mM trehalose. The folic acid standard was dissolved in 100 mMol potassium phosphate buffer, pH 6.1, 0.1% ascorbic acid.

[5] = tested on: Lactobacillus plantarum (ATCC 8014); details: cited from earlier work
[6] = tested on: Lactobacillus planatarum ATTC 8014; experiment: Microbiological calcium pantothenate determination (growth turbidity); assay type: cell-based; details: for Average value (measurement at 630 nm): number 3; for Measurement at 630 nm: single well
Experimental: [table] The preparation of the microtitration plate and the determination of […] 800 μg/L, p-aminobenzoic acid 200.0 μg/L, biotin 1.0 μg/L, potassium dihydrogen phosphate 1.0 g/L, dipotassium hydrogen phosphate 1.0 g/L, magnesium sulfate 0.4 g/L, sodium chloride 20.0 mg/L, iron sulfate 20.0 mg/L, manganese sulfate 20.0 mg/L. The storage medium further contained 200 mM trehalose.

[7] = tested on: Lactobacillus delbrueckii subsp. Lactis (L. leichmanii) ATCC 7830; experiment: Microbiological vitamin B12 determination (growth turbidity, B12 assay medium); assay type: cell-based; details: for Average value (measurement at 630 nm): number 3; for Measurement at 630 nm: single well
Source text: The preparation of the microtitration plate and the determination of vitamin B12 (cyanocobalamine, hydroxycobalamine) was effected as in Example 1, except only that Lactobacillus delbrueckii subsp. Lactis (L. leichmanii) ATCC 7830 was employed as test organism. As assay medium there served Difco™ B12 assay medium, containing casamino acids 15.0 g/L, dextrose 40.0 g/L, asparagine 0.2 g/L, sodium acetate 20.0 g/L, Ascorbic acid 4.0 g/L, L-cystein 4.0 g/L, DL-tryptophane 0.4 g/L, adenine sulfate 20.0 mg/L, guanine hydrochloride 20.0 mg/L, uracil 20.0 mg/L, xanthin 20.0 mg/L, polysorbate-80 2.0 g/L, magnesium sulfate (water-free) 0.4 mg/L, sodium chloride 20.0 mg/L, iron sulfate 20.0 mg/L, manganese sulfate 20.0 mg/L, riboflavin 1.0 mg/L, p-aminobenzoic acid 2.0 mg/L, pyridoxine hydrochloride 4.0 mg/L, thiamine hydrochloride 1.0 mg/L, calcium pantothenate 1.0 mg/L, niacin 2.0 mg/L, biotin 10.0 ug/L, pyridoxine hydrochloride 4.0 mg/L, pyridoxal hydrochloride 4.0 mg/L, pyridoxamine hydrochloride 800.0 ug/L, […], potassium dihydrogen phosphate 1.0 g/L, dipotassium hydrogen phosphate 1.0 g/L. The storage medium further contained 200 mM trehalose.

[8] = riboflavin standard 0.1 mg/100 g
[9] = riboflavin standard 0.2 mg/100 g
[10] = riboflavin standard 0.3 mg/100 g
[11] = riboflavin standard 0.4 mg/100 g
[12] = riboflavin standard 0.5 mg/100 g
[13] = B6-pyridoxine standard 0.004 mg/100 g
[14] = B6-pyridoxine standard 0.008 mg/100 g
[15] = B6-pyridoxine standard 0.012 mg/100 g
[16] = B6-pyridoxine standard 0.016 mg/100 g
[17] = B6-pyridoxine standard 0.024 mg/100 g
[18] = folic acid standard 3.75 pg/150 μl (0.25 μg/100 g)
[19] = folic acid standard 7.5 pg/150 μl (0.5 μg/100 g)
[20] = folic acid standard 15 pg/150 μl (1 μg/100 g)
[21] = folic acid standard 22.5 pg/150 μl (1.5 μg/100 g)
[22] = folic acid standard 30 pg/150 μl (2 μg/100 g)
[23] = Ca pantothenate standard 0.08 mg/100 g
[24] = Ca pantothenate standard 0.16 mg/100 g
[25] = Ca pantothenate standard 0.32 mg/100 g
[26] = Ca pantothenate standard 0.48 mg/100 g
[27] = Ca pantothenate standard 0.64 mg/100 g
[28] = vitamin B12 standard 0.1 μg/100 g
[29] = vitamin B12 standard 0.2 μg/100 g
[30] = vitamin B12 standard 0.3 μg/100 g
[31] = vitamin B12 standard 0.4 μg/100 g
[32] = vitamin B12 standard 0.8 μg/100 g

Molecule: Cc1cc2nc3c(=O)[nH]c(=O)nc-3n(C[C@H](O)[C@H](O)[C@H](O)CO)c2cc1C [B2 Riboflavin, riboflavin]
- Average value (measurement at 630 nm) [1, 8]: 0.204
- Measurement at 630 nm [1, 8]: 0.196 and 0.209 and 0.206
- Average value (measurement at 630 nm) [1, 9]: 0.398
- Measurement at 630 nm [1, 9]: 0.404 and 0.408 and 0.383
- Average value (measurement at 630 nm) [1, 10]: 0.623
- Measurement at 630 nm [1, 10]: 0.624 and 0.616 and 0.628
- Average value (measurement at 630 nm) [1, 11]: 0.759
- Measurement at 630 nm [1, 11]: 0.752 and 0.755 and 0.771
- Average value (measurement at 630 nm) [1, 12]: 0.88
- Measurement at 630 nm [1, 12]: 0.855 and 0.886 and 0.9

Molecule: Cc1ncc(CO)c(CO)c1O [B6-pyridoxine, pyridoxine]
- Average value (measurement at 630 nm) [2, 13]: 0.299
- Measurement at 630 nm [2, 13]: 0.298 and 0.297 and 0.301
- Average value (measurement at 630 nm) [2, 14]: 0.4
- Measurement at 630 nm [2, 14]: 0.407 and 0.398 and 0.394
- Average value (measurement at 630 nm) [2, 15]: 0.538
- Measurement at 630 nm [2, 15]: 0.522 and 0.541 and 0.552
- Average value (measurement at 630 nm) [2, 16]: 0.753
- Measurement at 630 nm [2, 16]: 0.73 and 0.766 and 0.762
- Average value (measurement at 630 nm) [2, 17]: 1.069
- Measurement at 630 nm [2, 17]: 1.049 and 1.088 and 1.07

Molecule: O=C(O)CCCC[C@@H]1SC[C@@H]2NC(=O)N[C@@H]21 [Biotin, biotin]
- Average value (measurement at 630 nm) ([3]; biotin standard 0.003 μg/100 g): 0.204
- Measurement at 630 nm ([3]; biotin standard 0.003 μg/100 g): 0.205 and 0.204 and 0.203
- Average value (measurement at 630 nm) ([3]; biotin standard 0.009 μg/100 g): 0.499
- Measurement at 630 nm ([3]; biotin standard 0.009 μg/100 g): 0.506 and 0.5 and 0.491
- Average value (measurement at 630 nm) ([3]; biotin standard 0.015 μg/100 g): 0.685
- Measurement at 630 nm ([3]; biotin standard 0.015 μg/100 g): 0.676 and 0.693 and 0.686
- Average value (measurement at 630 nm) ([3]; biotin standard 0.021 μg/100 g): 0.823
- Measurement at 630 nm ([3]; biotin standard 0.021 μg/100 g): 0.826 and 0.822 and 0.82
- Average value (measurement at 630 nm) ([3]; biotin standard 0.027 μg/100 g): 0.985
- Measurement at 630 nm ([3]; biotin standard 0.027 μg/100 g): 0.986 and 0.988 and 0.982

Molecule: Nc1nc2ncc(CNc3ccc(C(=O)N[C@@H](CCC(=O)O)C(=O)O)cc3)nc2c(=O)[nH]1 [Folic acid, folic acid]
- Average value (measurement at 630 nm) [4, 18]: 0.264
- Measurement at 630 nm [4, 18]: 0.269 and 0.261
- Average value (measurement at 630 nm) [4, 19]: 0.545
- Measurement at 630 nm [4, 19]: 0.556 and 0.536 and 0.544
- Average value (measurement at 630 nm) [4, 20]: 0.793
- Measurement at 630 nm [4, 20]: 0.784 and 0.788 and 0.807
- Average value (measurement at 630 nm) [4, 21]: 0.999
- Measurement at 630 nm [4, 21]: 0.986 and 1.002 and 1.01
- Average value (measurement at 630 nm) [4, 22]: 1.094
- Measurement at 630 nm [4, 22]: 1.121 and 1.074 and 1.087

Molecule: Niacytine
- Consumption by the test organism [5]: not consumed

Molecule: calcium pantothenate [Ca pantothenate]
- Average value (measurement at 630 nm) [6, 23]: 0.076
- Measurement at 630 nm [6, 23]: 0.075 and 0.08 and 0.073
- Average value (measurement at 630 nm) [6, 24]: 0.179
- Measurement at 630 nm [6, 24]: 0.179 and 0.178 and 0.181
- Average value (measurement at 630 nm) [6, 25]: 0.395
- Measurement at 630 nm [6, 25]: 0.389 and 0.404 and 0.392
- Average value (measurement at 630 nm) [6, 26]: 0.491
- Measurement at 630 nm [6, 26]: 0.49 and 0.493 and 0.491
- Average value (measurement at 630 nm) [6, 27]: 0.59
- Measurement at 630 nm [6, 27]: 0.589 and 0.594 and 0.588

Molecule: cyanocobalamine [Vitamin B12]
- Average value (measurement at 630 nm) [7, 28]: 0.268
- Measurement at 630 nm [7, 28]: 0.264 and 0.271 and 0.269
- Average value (measurement at 630 nm) [7, 29]: 0.515
- Measurement at 630 nm [7, 29]: 0.51 and 0.503 and 0.531
- Average value (measurement at 630 nm) [7, 30]: 0.728
- Measurement at 630 nm [7, 30]: 0.727 and 0.721 and 0.736
- Average value (measurement at 630 nm) [7, 31]: 0.869
- Measurement at 630 nm [7, 31]: 0.88 and 0.863 and 0.865
- Average value (measurement at 630 nm) [7, 32]: 1.069
- Measurement at 630 nm [7, 32]: 1.086 and 1.073 and 1.048

Reference: patent publication US8357504B2, “Method and kit for the microbiological determination of vitamins in substance mixtures” (IFP Privates Institut fur Produktqualitat GmbH, priority 2004, dated 2013)
